# Source: patent publication US20250057876A1, “METHODS FOR TREATING AND/OR PREVENTING LYMPHANGIOGENESIS-ASSOCIATED DISEASES BY USING GOLD NANOCLUSTERS” (MacKay Memorial Hospital, priority 2023, published 2025)
# Tested on: ISO-induced cardiac injured mice
# Assay: Echocardiography in isoproterenol (ISO)-induced heart failure model
# Format: in vivo, mouse
# Details: co-treatment of MAZ-51 with FANCs in ISO-treated mice, vs ISO+FANC group
# Description: Male 7-weeks-old C57BL/6 mice were purchased from BioLasco Inc. (Yilan, Taiwan), The mice were treated with FANCs (20 μM; about 0.57 mg/kg body weight) via an abdominal implant using osmotic pump system on Day 0. Then, the mice were subcutaneously treated with ISO (150 mg/kg) on Day 14. After 14 days from ISO injection, echocardiography was performed on Day 28 to measure the cardiac function of the mice. The animals were then sacrificed, and their hearts were harvested for histological and pathological examination.
# The experimental echocardiography for the mice was conducted after the mice were anesthetized with isoflurane (Abbott Laboratories Ltd., England; delivered to achieve a concentration of 1-2% in a combination of oxygen and nitrous oxide mixed at a ratio of 50:50 with air). […] Parameters including tissue Doppler used to determine contractile velocity (TDI-S′), deformation-based circumferential systolic strain measure, and quantitative indices of tissue structure integrated backscatter intensity from dynamic myocardial motions, were used to assess systolic myocardial performance using ECG-gated off-line analysis on the EchoPac Workstation.
structure (smiles),measurement,value
"CN(C)c1ccc(/C=C2/C(=O)Nc3ccccc32)c2ccccc12 [MAZ-51, (3E)-3-[[4-(dimethylamino)naphthalen-1-yl]methylidene]-JH-inden-2-one]",effect on FANCs improved cardiac function,abolished
